Reference: article PMC11791882

Assay: on-resin side-chain lactamisation Lys(NH2)/Glu(COOH) after Pd(0)/PhSiH3 removal of Alloc/OAll; DIC 30 eq + OxymaPure 30 eq; ProTide resin 0.19 mmol/g, ca. 300 mL DCM, 2 days
Details: the molecule shown is the open-chain precursor, 57-membered ring, scale: % HPLC purity of cyclic product

Row | Substance | ring closure, conversion by HPLC (168.0 h) | ring closure, conversion by HPLC (48.0 h)
1 | Fmoc-Thr(tBu)-Lys(NH2)-Asn(Trt)-His(Trt)-Gln(Trt)-Gly-Pro-Gly-Arg(Pbf)-Gly-Asp(OtBu)-Gln(Trt)-Thr(tBu)-Thr(tBu)-Leu-Ala-Gln(Trt)-Glu(COOH)-Ala-Gln(Trt)-Thr(tBu)-Gly-Trp(Boc)-Val-Gln(Trt)-Asn(Trt)-NH-ProTide resin | 0 | 
2 | Fmoc-Thr(tBu)-Lys(NH2)-Asn(Trt)-His(Trt)-Gln(Trt)-Gly-Pro-Gly-Arg(Pbf)-Gly-Asp(OtBu)-Gln(Trt)-Thr(tBu)-Thr(tBu)-Pro-Ala-Gln(Trt)-Glu(COOH)-Ala-Gln(Trt)-Thr(tBu)-Gly-Trp(Boc)-Val-Gln(Trt)-Asn(Trt)-NH-ProTide resin |  | 88.6
3 | Fmoc-Thr(tBu)-Lys(NH2)-Asn(Trt)-His(Trt)-Gln(Trt)-Gly-Leu-Gly-Arg(Pbf)-Gly-Asp(OtBu)-Gln(Trt)-Thr(tBu)-Thr(tBu)-Pro-Ala-Gln(Trt)-Glu(COOH)-Ala-Gln(Trt)-Thr(tBu)-Gly-Trp(Boc)-Val-Gln(Trt)-Asn(Trt)-NH-ProTide resin |  | 80.8
4 | Fmoc-Thr(tBu)-Lys(NH2)-Asn(Trt)-His(Trt)-Gln(Trt)-Ser(tBu)-Ala-Gln(Trt)-Arg(Pbf)-Gly-Asp(OtBu)-Leu-Thr(tBu)-Thr(tBu)-Pro-Ala-Gln(Trt)-Glu(COOH)-Ala-Gln(Trt)-Thr(tBu)-Gly-Trp(Boc)-Val-Gln(Trt)-Asn(Trt)-NH-ProTide resin |  | 73.9
